In publication PMC6908736, “Toxic Tau Oligomers Modulated by Novel Curcumin Derivatives” (Scientific Reports, 2019):
Like-named read-outs stand apart in the source and are kept apart here.

Columns and labels:
[1] = test system: human neuroblastoma SH-SY5Y cell line; experiment: MTS cytotoxicity of curcumin derivatives (dose-response); type: cell-based; set-up: LogIC50 (cell viability): unit not given here; conditions: for IC50: Homo sapiens; for LogIC50 (cell viability): n = 3
Description: Six compounds were selected due to their higher activity in modulating toxic TauO and subjected to additional in vitro testing to validate their effects on TauO (Fig. 2B). […] Compounds CL3,8 were obtained through a double aldol condensation on the diacetyl of the appropriate aromatic aldehyde 1[58]. Similarly, HemiC9 was obtained by means of Claisen-Schmidt Aldol condensation of acetone under basic conditions (Fig. 2C)[59]. Heterocyclic derivative CH8 was obtained in a two-step procedure from the corresponding cinnamic acid derivative 2 (Fig. 2D)[60]. […] This method allows the obtainment of target products avoiding the use of protecting groups. One of the criteria used to select these small molecules was evaluating their toxicity profile. The cytotoxicity of each curcumin derivative was examined by exposing the cultured human neuroblastoma SH-SY5Y cell line to a continuous range of small molecule concentrations (0–800 μM) and monitoring cell survival after 24 hours of treatment by an MTS assay. […] Human neuroblastoma SH-SY5Y cells (ATCC CRL-2266) were maintained in DMEM and grown to confluence in 96-well plates as previously described. […] The dose-response curve was used to calculate the concentration of the compound required for 50% inhibition of cell viability (IC50). Cell viability was corrected by the vehicle background. All measurements were performed in triplicate. The cytotoxic effect was determined using MTS assay (G3582, Promega) for assessing cell viability following the manufacturers’ instructions. Optical density (OD) was measured at 490 nm with POLARstar OMEGA plate reader (BMG Labtechnologies). Cell viability was calculated as the percentage of the OD value of treated cells compared to untreated controls, according to the following equation: Viability = (OD SAMPLE/OD CONTROL) × 100%.

[2] = target: T1, preformed recombinant tau oligomers (TauO) (Homo sapiens, UniProt P10636); experiment: Western blot of tau oligomers with and without compounds; type: biochemical; conditions: curcumin 1:5 and 1:10 molar ratio
T1 construct: made in house
Description: The tau pellet was treated with 8 M urea followed by overnight dialysis against 1X phosphate-buffered saline (PBS) pH 7.4. Tau concentration was measured using bicinchoninic acid protein assay (Pierce BCA Protein Assay Kit, 23225, Thermo Fisher Scientific) and normalized to 1 mg/mL by adding 1X PBS. Aliquots of tau monomer in PBS were stored at -20 °C. Each 300 µL of tau stock (0.3 mg) was added to 700 µL of 1X PBS and incubated for 1 hour on an orbital shaker at room temperature. After shaking, the resulting tau oligomers were purified by fast protein liquid chromatography (FPLC, Superdex 200 Increase 10/300 column, Amersham Biosciences).
(§1) A volume of 100 μL of tau oligomers (1 µg/μL) was incubated with curcumin (1:5 and 1:10 molar ratio) and curcumin derivatives (1:5 molar ratio). Compounds were dissolved in EtOH 75%/DMSO (5:1) at a final concentration of 5 mM and diluted in 1X PBS or ddH2O for incubation or toxicity assay (final concentration 5 μM). Tau oligomers in the presence of the small molecules and controls were incubated on an orbital shaker, without stirring, for 16 hours under oligomerization conditions as previously described.
An amount of 3 µg of each sample were resolved on a pre-cast NuPAGE 4–12% Bis-Tris Gels for SDS-PAGE (NP0335BOX, Invitrogen) and transferred to nitrocellulose membranes. […]

[3] = target: T1, preformed recombinant tau oligomers (TauO); experiment: Direct ELISA, dot blot and filter trap of tau oligomers (T22, TOMA1, Tau 5); type: biochemical; conditions: curcumin 1:5 and 1:10 molar ratio, vs untreated TauO
Description: as §1
Dot blot assay to detect tau oligomers in the absence or presence of small molecules was performed as previously described. Briefly, 1.5 μl of each end-product reaction was applied onto nitrocellulose membranes and then blocked with 10% nonfat milk in TBS-T overnight at 4 °C. The next day, membranes were probed with the oligomer-specific tau antibodies, T22 (1:250), TOMA1(1:200) and total tau antibody, Tau 5, (1:10000) diluted in 5% nonfat milk for 1 hour at RT. […]
ELISA assay was conducted as previously described. […] Plates were washed three times with TBS-T and developed with 3,3,5,5-tetramethylbenzidine (TMB + Substrate- Chromogen, S1599, Dako) The reaction was stopped using 100 μL of 1 M HCl and absorbance was read at 450 nm using POLARstar OMEGA plate reader. […]

[4] = test system: SH-SY5Y cells exposed to TauO; experiment: MTS assay of TauO-induced toxicity in SH-SY5Y; type: cell-based, human; conditions: 2 µM TauO, curcumin final concentration 10 μM, 24 hours
Description: Human neuroblastoma SH-SY5Y cells (ATCC CRL-2266) were maintained in DMEM and grown to confluence in 96-well plates as previously described. […] The dose-response curve was used to calculate the concentration of the compound required for 50% inhibition of cell viability (IC50).
Cell viability was corrected by the vehicle background. All measurements were performed in triplicate. The cytotoxic effect was determined using MTS assay (G3582, Promega) for assessing cell viability following the manufacturers’ instructions. Optical density (OD) was measured at 490 nm with POLARstar OMEGA plate reader (BMG Labtechnologies). Cell viability was calculated as the percentage of the OD value of treated cells compared to untreated controls, according to the following equation: Viability = (OD SAMPLE/OD CONTROL) × 100%.

[5] = MTS, 0–800 μM, 24 hours, n = 3, read-out: IC50 (cell viability)

T1 sequence (P10636 1-441 isoform P10636-8): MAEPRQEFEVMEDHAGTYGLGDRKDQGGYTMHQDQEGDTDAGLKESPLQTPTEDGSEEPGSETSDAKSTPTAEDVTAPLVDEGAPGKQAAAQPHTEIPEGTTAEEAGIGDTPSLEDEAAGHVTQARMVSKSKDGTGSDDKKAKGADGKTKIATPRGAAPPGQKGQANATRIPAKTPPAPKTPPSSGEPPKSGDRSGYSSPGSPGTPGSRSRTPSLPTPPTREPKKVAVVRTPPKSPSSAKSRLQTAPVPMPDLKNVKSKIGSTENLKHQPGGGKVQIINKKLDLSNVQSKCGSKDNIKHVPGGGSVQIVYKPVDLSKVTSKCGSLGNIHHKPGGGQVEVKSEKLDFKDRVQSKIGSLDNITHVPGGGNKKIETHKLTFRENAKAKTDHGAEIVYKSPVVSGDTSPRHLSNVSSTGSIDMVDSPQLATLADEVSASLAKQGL

Structure (SMILES)	IC50 [1, 5] [µM]	LogIC50 (cell viability) ([1]; MTS, 0–800 μM, 24 hours)	other results
O=C(/C=C/c1ccccc1Cl)C(=O)/C=C/c1ccccc1Cl [CL8]	54.5	1.737	–
O=C(/C=C/c1ccc(Cl)cc1)COC(=O)/C=C/c1ccc(Cl)cc1 [Cal7]	–	2.281	IC50 ([1]; 24 h, read-out: IC50 (cell viability)): 191 µM
CC(=O)/C=C/c1ccc(C)cc1 [HemiC9]	124	–	–
CN(C)c1ccc(/C=C/c2nnc(/C=C/c3ccc(N(C)C)cc3)o2)cc1 [CH8]	110	2.042	–
O=C(/C=C/c1ccc(F)cc1)C(=O)/C=C/c1ccc(F)cc1 [CL3]	56.1	1.749	–
COc1cc(/C=C/C(=O)CC(=O)/C=C/c2ccc(O)c(OC)c2)ccc1O [curcumin]	–	–	aggregation state of TauO by Western blot (T22, Tau 5, Tau 13) [2]: promoting the formation of higher molecular weight tau aggregates; oligomer level, T22 immunoreactivity (direct ELISA and dot blot) [3]: significant decrease in oligomers; cell viability after TauO in the presence of compound [4]: rescued cells from TauO-induced toxicity
